Inhibition and pest or weed control data for 22 molecules are collected here from patent publication US5726162A (priority 1996, dated 1998).

One experiment relates to fungal inoculum. The experiment can be described thus: organism not typed. Conditions: read-out: % growth inhibition. It is filed as cell-based.
Experiment [1] relates to Magnaporthe grisea (Pyricularia oryzae). The experiment can be described thus: whole plant or invertebrate. It is filed as in vivo, Magnaporthe grisea (Pyricularia oryzae) on M201 rice plants. Conditions: Pyricularia oryzae, 144 h, read-out: % Control RB.

What is called inhibition is the share of the control response that was lost under treatment.

Consider `COC(C)C#CCN1N=C(c2ccc(Cl)cc2)CCC1=O` (centres unmarked) [Compound 48, 6-(4-chlorophenyl)-2-(4'methoxy-2'-pentynyl)-4,5-dihydropyridazinone], for which the inhibition at 50 ppm with fungal inoculum was determined as 100%. Further, the pest or weed control at 200 ppm in experiment [1] came out at 90%.

With `CC(=O)OC(C)C#CCN1N=C(c2ccc(Cl)cc2)CCC1=O` (centres unmarked) [Compound 49, 6-(4-chlorophenyl)-2-(4'acetoxy-2'-pentynyl)-4,5-dihydropyridazinone], the inhibition at 50 ppm in the experiment with fungal inoculum was determined as 100%. In experiment [1], the pest or weed control at 200 ppm turned out to be 90%.

For `O=C1CCC(c2ccc(Cl)cc2)=NN1CC#CCCO` [Compound 50], in the experiment with fungal inoculum, the inhibition at 50 ppm was determined as 100%. In addition, in experiment [1], the pest or weed control at 200 ppm stood at 0%.

In the case of `O=C1CCC(c2ccc(Cl)cc2)=NN1CC#CCCF` [Compound 51, 6-(4-chlorophenyl)-2-(5'-fluoro-2'-pentynyl)-4,5-dihydropyridazinone], the inhibition at 50 ppm in the experiment on fungal inoculum amounted to 100%. In addition, in experiment [1], the pest or weed control at 200 ppm turned out to be 100%.

`C=C=CN1N=C(c2ccc(Cl)cc2)CCC1=O` [Compound 52]: the inhibition at 50 ppm in the experiment with fungal inoculum worked out at 93.7%. In experiment [1], the pest or weed control at 200 ppm is 0%.

On to `CC(F)C#CCN1N=C(c2ccc(Cl)cc2)CCC1=O` (centres unmarked) [Compound 53], for which the inhibition at 50 ppm with fungal inoculum was found to be 100%. Besides, in experiment [1], the pest or weed control at 200 ppm amounted to 100%.

For `COC(=O)C#CCN1N=C(c2ccc(Cl)cc2)CCC1=O` [Compound 55], the inhibition at 50 ppm in the experiment on fungal inoculum came out at 100%. For the same molecule, the pest or weed control at 200 ppm in experiment [1] worked out at 0%.

In the case of `CCC#CCN1N=C(c2ccc(C(C)(C)C)cc2)CCC1=O` [Compound 57], the inhibition at 100 ppm in the experiment with fungal inoculum is 95.7%. Further, the pest or weed control at 200 ppm in experiment [1] is 0%.

Turning to `CC#CCN1N=C(c2ccc(CC)cc2)CCC1=O` [Compound 58], in the experiment with fungal inoculum, the inhibition at 10 ppm was found to be 39.8%. The pest or weed control at 200 ppm in experiment [1] amounted to 0%.

On to `CCC#CCN1N=C(c2ccc(CC)cc2)CCC1=O` [Compound 59], for which the inhibition at 10 ppm in the experiment on fungal inoculum worked out at 100%. Also, the pest or weed control at 200 ppm in experiment [1] is 0%.

In the case of `O=C1CCC(c2ccc(Cl)cc2)=NN1CC#CI` [Compound 60], the inhibition at 10 ppm in the experiment on fungal inoculum stood at 100%. Also, the pest or weed control at 200 ppm in experiment [1] was found to be 50%.

Take `CCC#CCN1N=C(c2ccc(SC)cc2)CCC1=O` [Compound 61]: in the experiment with fungal inoculum, the inhibition at 10 ppm turned out to be 95.3%. Moreover, the pest or weed control at 200 ppm in experiment [1] worked out at 90%.

For `CCC#CCN1N=C(c2ccc(Cl)c(C)c2)CCC1=O` [Compound 62], the inhibition at 1 ppm in the experiment with fungal inoculum stood at 100%. The pest or weed control at 200 ppm in experiment [1] was 99%.

In the case of `CC(C)C#CC=CCN1N=C(c2ccc(Cl)cc2)CCC1=O` [Compound 70], the inhibition at 5 ppm with fungal inoculum worked out at 100%. Moreover, the pest or weed control at 200 ppm in experiment [1] was determined as 0%.

Take `O=C1CCC(c2ccc(Cl)cc2)=NN1CC#CCBr` [Compound 71]: the inhibition at 50 ppm with fungal inoculum was 92.6%. Further, the pest or weed control at 200 ppm in experiment [1] was found to be 0%.

Turning to `O=C1CCC(c2ccc(Cl)cc2)=NN1CC#CCCl` [Compound 72, 6-(4-chlorophenyl)-2-(4'-chloro-2'-butynyl)-4,5-dihydropyridazinone], the inhibition at 0.5 ppm in the experiment with fungal inoculum stood at 96.2%. In addition, the pest or weed control at 200 ppm in experiment [1] worked out at 90%.

As to `CCC#CCN1N=C(c2ccc(Cl)cc2F)CCC1=O` [Compound 73], in the experiment with fungal inoculum, the inhibition at 50 ppm was determined as 94.4%. Further, the pest or weed control at 200 ppm in experiment [1] was found to be 95%.

For `O=C1CCC(c2ccc(Cl)cc2)=NN1CC#CC1CO1` (centres unmarked) [Compound 77], the inhibition at 10 ppm in the experiment on fungal inoculum was 89.2%. Moreover, the pest or weed control at 200 ppm in experiment [1] worked out at 0%.

For `O=C1CCC(c2ccc(Cl)cc2)=NN1CC#CC(F)=C(F)F` [Compound 78], the inhibition at 0.5 ppm in the experiment on fungal inoculum was 100%. Besides, the pest or weed control at 200 ppm in experiment [1] was 0%.

Turning to `CCC#CCN1N=C(c2ccc(OC(F)(F)F)c(F)c2)CCC1=O` [Compound 92], the inhibition at 1 ppm with fungal inoculum came out at 100%. The pest or weed control at 200 ppm in experiment [1] amounted to 90%.

Turning to `CCC#CCn1nc(-c2ccc(CC)cc2)ccc1=O` [Compound 110], the inhibition at 10 ppm with fungal inoculum stood at 100%. In addition, the pest or weed control at 200 ppm in experiment [1] came to 0%.

Turning to `CCC#CCn1nc(-c2ccc(C(C)(C)C)cc2)ccc1=O` [Compound 111], the inhibition at 25 ppm in the experiment on fungal inoculum turned out to be 100%. Further, in experiment [1], the pest or weed control at 200 ppm stood at 0%.
